We go through 26 substances from patent US9580487B2, “Method of treating stomach or bowel-related disorders by administering glucagon-like-peptide-2 (GLP-2) analogues” (Zealand Pharma A/S, priority 2005, dated 2017).

“Also recorded” adds a separate entry of the source. No end group written: not given here.

This assay deals with male C57BL mice. Kind of assay: Screening for intestinal growth effects (small intestine and colon mass relative to body weight, small intestine-colon sensitivity index). The class given is in vivo. The conditions noted are these: for Preferential growth of small intestine versus colon (small intestine-colon sensitivity): relative to [Gly2]GLP-2; for colon mass relative to body weight, % [Gly2]GLP-2 / small intestine-colon sensitivity index, (SI/Colon)X/(SI/Colon)[Gly2]GLP-2 %: male C57BL mice, 30 nmol/kg s.c. twice daily for ten days; for small intestine-colon sensitivity index, (SI/Colon)X/(SI/Colon)[Gly2]GLP-2 %: third value column. How it is done: The ability of the present compounds to stimulate intestinal growth was determined in male C57BL mice. Individual groups (n=6) of mice were given 30 nmol/kg of each compound, s.c, twice daily for ten consecutive days. For comparison purposes other groups of animals were given either an equimolar dose of [Gly2]GLP-2 (SEQ ID NO:54) or vehicle (phosphate buffered saline, pH 7.4) in the same dosing regimen. Twenty-four hours after the last dose of compound had been given the mice were sacrificed and the small intestine (from the pylorus to the cecum) and the colon (intestine distal to cecum) was emptied and weighed. To correct for slight difference in body weight (BW), the organ mass of the small intestine (SI) and colon were expressed relative to BW. The non-selective reference compound [Gly2]GLP-2 (SEQ ID NO:54) has been reported to stimulate gastrointestinal growth in both esophagus, stomach, small intestine and colon and to evaluate differences in growth pattern induced by compounds, the small intestine-colon sensitivity index of compound X was calculated as:
(SI/Colon)X/(SI/Colon)[Gly2]GLP-2%
Compounds with a small intestine-colon sensitivity greater than or equal to 1.05 were considered relatively selective for the small intestine (Table 15).
Compounds with a small intestine-colon sensitivity smaller than or equal to 0.95 were considered relatively selective for the colon (Table 15).

[1] abbreviates: 30 nmol/kg s.c. twice daily, ten days.

As to “[Gly2, Glu3, Leu10, Lys11, Ala16,24,28]hGLP-2(1-33)-(Lys)6-NH2 (HGEGSFSDELKTILDALAARDFIAWLIATKITDKKKKKK-NH2) [Compound 1850]”, the “colon mass relative to body weight, % [Gly2]GLP-2” value is 89 % [Gly2]GLP-2 and the “small intestine-colon sensitivity index, (SI/Colon)X/(SI/Colon)[Gly2]GLP-2 %” value worked out at 116 % [Gly2]GLP-2. For the same substance, the “Preferential growth of small intestine versus colon (small intestine-colon sensitivity)” value under setting [1] was “preferentially stimulating epithelial growth in the small intestine”. For the substance “[Gly2, Glu3, Leu10, Lys11, Ala16,24,28]hGLP-2(1-33)-NH2 (HGEGSFSDELKTILDALAARDFIAWLIATKITD-NH2) [Compound 1859]”, the “colon mass relative to body weight, % [Gly2]GLP-2” value amounted to 73 % [Gly2]GLP-2 and the “small intestine-colon sensitivity index, (SI/Colon)X/(SI/Colon)[Gly2]GLP-2 %” value worked out at 114 % [Gly2]GLP-2. Besides, the “Preferential growth of small intestine versus colon (small intestine-colon sensitivity)” value under setting [1] is “preferentially stimulating epithelial growth in the small intestine”. As to “[Gly2, Glu3, Thr5, Leu10, Ala11,16,24,28]hGLP-2-(Lys)6-NH2 (HGEGTFSDELATILDALAARDFIAWLIATKITDKKKKKK-NH2) [Compound 1809]”, the “Small intestine mass relative to [Gly2]GLP-2” value (30 nmol/kg s.c. twice daily, ten days, equimolar [Gly2]GLP-2) is “significant increase in the weight of the small intestine”. For the same substance, the “Preferential growth of small intestine versus colon (small intestine-colon sensitivity)” value under setting [1] is “preferentially stimulating epithelial growth in the small intestine”.

Consider “[Gly2, Glu3, Thr5, Leu10, Lys11, Ala16,24,28]hGLP-2(1-33)-(Lys)6-NH2 (HGEGTFSDELKTILDALAARDFIAWLIATKITDKKKKKK-NH2) [Compound 1851]”, for which the “colon mass relative to body weight, % [Gly2]GLP-2” value is 96 % [Gly2]GLP-2 and the “small intestine-colon sensitivity index, (SI/Colon)X/(SI/Colon)[Gly2]GLP-2 %” value stood at 114 % [Gly2]GLP-2. Moreover, under setting [1], the “Preferential growth of small intestine versus colon (small intestine-colon sensitivity)” value was “preferentially stimulating epithelial growth in the small intestine”.

Turning to “[Gly2, Glu3, Thr5, Leu10, Ser11, Ala16,24,28]hGLP-2(1-33)-(Lys)6-NH2 (HGEGTFSDELSTILDALAARDFIAWLIATKITDKKKKKK-NH2) [Compound 1845]”, the “colon mass relative to body weight, % [Gly2]GLP-2” value is 98 % [Gly2]GLP-2 and the “small intestine-colon sensitivity index, (SI/Colon)X/(SI/Colon)[Gly2]GLP-2 %” value was 107 % [Gly2]GLP-2. Also, under setting [1], the “Preferential growth of small intestine versus colon (small intestine-colon sensitivity)” value is “preferentially stimulating epithelial growth in the small intestine”. For “[Gly2, Glu3, Thr5, Leu10, Ser11, Ala16,24,28]hGLP-2(1-33)-NH2 (HGEGTFSDELSTILDALAARDFIAWLIATKITD-NH2) [Compound 1854]”, under setting [1], the “Preferential growth of small intestine versus colon (small intestine-colon sensitivity)” value is reported as “without preferential growth in small intestine or colon”. As to “[Gly2, Glu3, Thr5, Ser8,11, Leu10, Ala16,24,28]hGLP-2(1-33)-(Lys)6-NH2 (HGEGTFSSELSTILDALAARDFIAWLIATKITDKKKKKK-NH2) [Compound 1844]”, the “colon mass relative to body weight, % [Gly2]GLP-2” value worked out at 89 % [Gly2]GLP-2 and the “small intestine-colon sensitivity index, (SI/Colon)X/(SI/Colon)[Gly2]GLP-2 %” value came out at 119 % [Gly2]GLP-2. Under setting [1], the “Preferential growth of small intestine versus colon (small intestine-colon sensitivity)” value is listed as “supplementary increase in the weight of the small intestine without significant effecting the weight of the colon; also recorded: preferentially stimulating epithelial growth in the small intestine”. Taken in the same sequence, the figures for “[Gly2, Glu3, Thr5, Ser8,11, Leu10, Ala16,24,28]hGLP-2(1-33)-NH2 (HGEGTFSSELSTILDALAARDFIAWLIATKITD-NH2) [Compound 1853]” were 96 % [Gly2]GLP-2, 105 % [Gly2]GLP-2 and “supplementary increase in the weight of the small intestine without significant effecting the weight of the colon; also recorded: preferentially stimulating epithelial growth in the small intestine”. On to “[Gly2, Glu3, Thr5, Ser8, Leu10, Lys11, Ala16,24,28]hGLP-2(1-33)-NH2 [Compound 1852]”, for which the “colon mass relative to body weight, % [Gly2]GLP-2” value was found to be 97 % [Gly2]GLP-2 and the “small intestine-colon sensitivity index, (SI/Colon)X/(SI/Colon)[Gly2]GLP-2 %” value amounted to 109 % [Gly2]GLP-2. Moreover, under setting [1], the “Preferential growth of small intestine versus colon (small intestine-colon sensitivity)” value is on record as “supplementary increase in the weight of the small intestine without significant effecting the weight of the colon; also recorded: preferentially stimulating epithelial growth in the small intestine”. Take “[Gly2, Leu10, Ala24]hGLP-2-K6-NH2 (HGDGSFSDELNTILDNLAARDFIAWLIQTKITDKKKKKK-NH2) [Compound 1826]”: under setting [1], the “Preferential growth of small intestine versus colon (small intestine-colon sensitivity)” value was “preferentially stimulating epithelial growth in the small intestine”. Regarding “[Gly2, Leu10, Lys11, Ala24]hGLP-2(1-30)-K6-NH2 [Compound 1821]”, under setting [1], the “Preferential growth of small intestine versus colon (small intestine-colon sensitivity)” value is listed as “without preferential growth in small intestine or colon”. On to “[Gly2, Leu10, Lys11, Ala24]hGLP-2(1-30)-NH2 (HGDGSFSDELKTILDNLAARDFIAWLIQTK-NH2) [Compound 1835]”, for which the “colon mass relative to body weight, % [Gly2]GLP-2” value is 105 % [Gly2]GLP-2 and the “small intestine-colon sensitivity index, (SI/Colon)X/(SI/Colon)[Gly2]GLP-2 %” value was determined as 91 % [Gly2]GLP-2. Besides, the “Preferential growth of small intestine versus colon (small intestine-colon sensitivity)” value under setting [1] is given as “preferentially stimulating epithelial growth in the colon”. Regarding “[Gly2, Leu10, Ser8,11, Ala24]hGLP-2(1-30)-K6-NH2 [Compound 1829]”, the “Preferential growth of small intestine versus colon (small intestine-colon sensitivity)” value under setting [1] was “without preferential growth in small intestine or colon”. On the same count and under the same terms, next, “[Gly2, Leu10, Ser8,11, Ala24]hGLP-2(1-30)-NH2 (HGDGSFSSELSTILDNLAARDFIAWLIQTK-NH2) [Compound 1833]”: “without preferential growth in small intestine or colon”.

“[Gly2, Leu10, Ser11, Ala24]hGLP-2(1-30)-K6-NH2 [Compound 1819]”: the “Preferential growth of small intestine versus colon (small intestine-colon sensitivity)” value under setting [1] is reported as “preferentially stimulating epithelial growth in the small intestine”.

On to “[Gly2, Leu10, Ser11, Ala24]hGLP-2(1-30)-NH2 (HGDGSFSDELSTILDNLAARDFIAWLIQTK-NH2) [Compound 1830]”, for which the “colon mass relative to body weight, % [Gly2]GLP-2” value came out at 106 % [Gly2]GLP-2 and the “small intestine-colon sensitivity index, (SI/Colon)X/(SI/Colon)[Gly2]GLP-2 %” value was 94 % [Gly2]GLP-2. Further, the “Preferential growth of small intestine versus colon (small intestine-colon sensitivity)” value under setting [1] is given as “preferentially stimulating epithelial growth in the colon”. On to “[Gly2, Ser8, Leu10, Ala11,24]hGLP-2(1-30)-K6-NH2 [Compound 1818]”, for which the “Preferential growth of small intestine versus colon (small intestine-colon sensitivity)” value under setting [1] is “supplementary increase in the weight of the small intestine without significant effecting the weight of the colon; also recorded: preferentially stimulating epithelial growth in the small intestine”. On the same count and under the same terms, next, “[Gly2, Ser8, Leu10, Ala11,24]hGLP-2(1-30)-NH2 (HGDGSFSSELATILDNLAARDFIAWLIQTK-NH2) [Compound 1825]”: “without preferential growth in small intestine or colon”. Still for that read-out and setting: the result for “[Gly2, Thr7, Leu10, Lys11, Ala24]hGLP-2(1-30)-K6-NH2 [Compound 1822]” reads “without preferential growth in small intestine or colon”. For “[Gly2, Thr7, Leu10, Lys11, Ala24]hGLP-2(1-30)-NH2 (HGDGSFTDELKTILDNLAARDFIAWLIQTK-NH2) [Compound 1836]”, the “colon mass relative to body weight, % [Gly2]GLP-2” value is 105 % [Gly2]GLP-2 and the “small intestine-colon sensitivity index, (SI/Colon)X/(SI/Colon)[Gly2]GLP-2 %” value is 90 % [Gly2]GLP-2. In addition, under setting [1], the “Preferential growth of small intestine versus colon (small intestine-colon sensitivity)” value is “preferentially stimulating epithelial growth in the colon”. Turning to “[Gly2, Thr7, Leu10, Ser8,11, Ala24]hGLP-2(1-30)-K6-NH2 [Compound 1828]”, under setting [1], the “Preferential growth of small intestine versus colon (small intestine-colon sensitivity)” value was “without preferential growth in small intestine or colon”. As for “[Gly2, Thr7, Leu10, Ser8,11, Ala24]hGLP-2(1-30)-NH2 (HGDGSFTSELSTILDNLAARDFIAWLIQTK-NH2) [Compound 1832]”, under setting [1], the “Preferential growth of small intestine versus colon (small intestine-colon sensitivity)” value is given as “without preferential growth in small intestine or colon”. Still for that read-out and setting: next, “[Gly2, Thr7, Leu10, Ser11, Ala24]hGLP-2(1-30)-K6-NH2 [Compound 1827]”: “preferentially stimulating epithelial growth in the small intestine”. As to “[Gly2, Thr7, Leu10, Ser11, Ala24]hGLP-2(1-30)-NH2 (HGDGSFTDELSTILDNLAARDFIAWLIQTK-NH2) [Compound 1831]”, the “colon mass relative to body weight, % [Gly2]GLP-2” value came to 102 % [Gly2]GLP-2 and the “small intestine-colon sensitivity index, (SI/Colon)X/(SI/Colon)[Gly2]GLP-2 %” value was determined as 88 % [Gly2]GLP-2. In addition, the “Preferential growth of small intestine versus colon (small intestine-colon sensitivity)” value under setting [1] is on record as “preferentially stimulating epithelial growth in the colon”.

Turning to “[Gly2, Thr7, Ser8, Leu10, Lys11, Ala24]hGLP-2(1-30)-K6-NH2 [Compound 1823]”, the “Preferential growth of small intestine versus colon (small intestine-colon sensitivity)” value under setting [1] is “without preferential growth in small intestine or colon”. “[Leu10, Ala11, Ala24]hGLP-2 (1-30)-NH2 [Compound 1841]”: the “colon mass relative to body weight, % [Gly2]GLP-2” value came out at 126 % [Gly2]GLP-2 and the “small intestine-colon sensitivity index, (SI/Colon)X/(SI/Colon)[Gly2]GLP-2 %” value turned out to be 90 % [Gly2]GLP-2. For the same substance, the “Preferential growth of small intestine versus colon (small intestine-colon sensitivity)” value under setting [1] is listed as “preferentially stimulating epithelial growth in the colon”.
